Values quoted from earlier work as cited in PMC11237654, “Optimization of quenched fluorescent peptide substrates of SARS-CoV-2 3CL^pro main protease (Mpro) from proteomic identification of P6—P6' active site specificity” (Journal of Virology, 2024).
Square brackets hold non-standard residues; d marks the D form. * marks the point of attachment. ACC = NC(=O)Cc1cc(=O)oc2cc(N*)ccc12; Tle = CC(C)(C)[C@H](N)C(=O)O; Abu = CC[C@H](N)C(=O)O

Target: SARS-CoV-2 3CL^pro (Severe acute respiratory syndrome coronavirus 2, UniProt P0DTD1, Q3569A)
Settings: cited from earlier work

For Ac-[Abu][Tle]LQ-{ACC}, the kcat/KM is given as 859 M⁻¹ s⁻¹.
